Results as given in PMC10648349, “Aromatic Diboronic Acids as Effective KPC/AmpC Inhibitors” (Molecules, 2023).
In brackets after ≈: the same amount, converted by molar mass. Several values for one entry are separate records, joined by “and”; a condition that tells them apart may be missing. Identical values can stand only once.

Experiments:
[1] = system: Gram-positive strains; test: direct antimicrobial activity, MIC; assay type: cell-based
Procedure: (§1) Direct antimicrobial activity against Gram-negative and Gram-positive bacterial strains, as well as against yeast, was examined as previously described by the disc-diffusion test, the MIC determination assay, the MBC (for bacteria), and the MFC (for yeasts) determination tests. All the above-mentioned tests were performed according to EUCAST [71, 72] and CLSI [73, 74, 75, 76, 77] recommendations. The following reference agents were used: nitrofurantoin (for Gram-negative rods), linezolid (for Gram-positive bacteria), and fluconazole (in the case of fungi). The new aromatic diboronic acids were dissolved in DMSO (Sigma, St. Louis, MO, USA). In the disc-diffusion test, the concentration of new agents was 0.4 mg per disc. Depending on the solubility, the MIC and MBC/MFC values were determined up to 100 mg/L for 1k, up to 200 mg/L for 7c, and up to 400 mg/L for the remaining compounds: 1a–1j, 2a–2g, 3a–3f, 4a–4b, 5a–5c, 6a and 7a–7b.

[2] = biological target: KPC-3 in purified protein extract from E. coli 82 TR(pl 81) (Klebsiella pneumoniae, UniProt Q9F663, H272Y); test: nitrocefin hydrolysis test; assay type: biochemical; conditions: single repetitions
Procedure: Overnight culture of E. coli 82 TR(pl 81) in MHB was diluted 1:100 into fresh MHB and incubated with shaking at 37 °C until an OD600 of 1 was attained. […] Further incubation was performed under the same conditions until an OD600 of 3 was reached. The culture with the required OD600 was centrifuged (6700× g, 10 min) and the supernatant was discarded. From the obtained bacterial cell pellet total proteins were extracted with the ReadyPreps™ Protein Preparation Kit (Epicentre Biotechnologies, Madison, WI, USA) and used in the subsequent nitrocefin hydrolysis test, performed in a 96-well microplate. Nitrocefin is a chromogenic cephalosporin substrate routinely used to detect the presence of β-lactamases. First, 20 μL of the protein extract was mixed with 80 μL of tested agents (1a, 2a, 3a and PBA as a reference BLI, each examined at concentrations: 4, 8 and 16 mg/L) or with 80 μL of the phosphate buffer (positive control—corresponding to KPC enzyme activity in the purified total proteins extracted from E. coli 82 TR(pl 81) cells). After 10 min of incubation at the room temperature 100 μL of the nitrocefin (Oxoid, Basingstoke, Hampshire, England) was added to reach its final concentration of 150 μM. β-lactamases hydrolyze the β-lactam ring of nitrocefin, causing its degradation and color change. Nitrocefin hydrolysis was evaluated after 3 min of the incubation at room temperature.
As in our previous publication the presence of β-lactamases in the purified protein extract with and without tested agents was assessed by the spectrophotometric measurement of the rates of nitrocefin hydrolysis as relative absorbance at 486 nm. The level of the measured absorbance indicated β-lactamase activity. Finally, the difference in the relative absorbance between the positive control and the sample concentration of the tested inhibitors was calculated and expressed as a percentage. A reduction in the relative absorbance level in the presence of a tested agent was taken as an indicator of the BLI activity of a used aromatic diboronic acid. The experiment was performed in triplicate.

[3] = system: Gram-negative rods (except P. aeruginosa); test: direct antimicrobial activity, MIC; assay type: cell-based
Procedure: as §1, with “disc.” for “disc. Depending on the solubility, the MIC and MBC/MFC values were determined up to 100 mg/L for 1k, up to 200 mg/L for 7c, and up to 400 mg/L for the remaining compounds: 1a–1j, 2a–2g, 3a–3f, 4a–4b, 5a–5c, 6a and 7a–7b.”

[4] = system: Gram-negative rods; test: MIC in the presence of efflux pump inhibitor PAβN; assay type: cell-based; conditions: PAβN 20 mg/L
Procedure: To investigate the contribution of the MDR efflux pumps to the resistance of Gram-negative rods to the newly synthesized compounds, the MIC values of studied agents, with or without the pump inhibitor, PAβN (20 mg/L) (Sigma, St. Louis, MO, USA), were evaluated. The MIC determination was performed in Mueller–Hinton II broth medium (MHB) (Becton, Dickinson and Company, Franklin Lakes, NJ, USA) using 2-fold serial dilutions of tested agents, according to the CLSI guidelines. To minimize the influence of PAβN on the destabilization of bacterial cell covers, the tests were conducted in the presence of 1 mM MgSO4 (Sigma, St. Louis, MO, USA). At least a 4-fold reduction in the MIC value after the addition of PAβN was considered significant.

[5] = system: yeasts; test: antifungal activity, MIC/MFC; assay type: cell-based; conditions: for MFC: yeasts against which fungicidal activity was noticed
Procedure: as §1

Chain of KPC-3 in purified protein extract from E. coli 82 TR(pl 81) (Q9F663 25-293 H272Y): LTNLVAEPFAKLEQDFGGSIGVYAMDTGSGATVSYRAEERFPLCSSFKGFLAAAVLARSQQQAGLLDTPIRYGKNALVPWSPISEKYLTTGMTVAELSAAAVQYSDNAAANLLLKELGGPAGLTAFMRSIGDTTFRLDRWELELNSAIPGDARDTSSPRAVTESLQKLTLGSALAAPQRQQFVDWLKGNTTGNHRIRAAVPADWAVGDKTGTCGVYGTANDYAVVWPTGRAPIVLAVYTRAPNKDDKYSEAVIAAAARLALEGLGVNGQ

SMILES | MIC ([1]; enterococci) | MIC ([1]; staphylococci) | Relative absorbance (nitrocefin hydrolysis, 486 nm) ([2]; agent 4 mg/L) | Relative absorbance (nitrocefin hydrolysis, 486 nm) ([2]; agent 8 mg/L) | Relative absorbance (nitrocefin hydrolysis, 486 nm) ([2]; agent 16 mg/L) | MIC [3] | also measured
OB(O)c1cc(F)c(B(O)O)cc1F [1e] | 100 to 400 µg/mL (≈ 496 to 1980 µM) | 12.5 to 50 µg/mL (≈ 62 to 248 µM) |  |  |  |  | 
OB(O)c1ccccc1 [PBA, phenylboronic acid, reference compound] |  |  | 1.093 and 1.087 and 1.232 | 1.183 and 1.165 and 1.117 | 0.975 and 0.933 and 0.957 |  | 
O=Cc1cc(F)ccc1B(O)O [7b] | 100 to 400 µg/mL (≈ 595 to 2380 µM) | 12.5 to 50 µg/mL (≈ 74.4 to 298 µM) |  |  |  | 50 to 400 µg/mL (≈ 298 to 2380 µM) | reduction of MIC in the presence of PAβN [4]: 4–16 fold
OB(O)c1cc(F)ccc1F [7a, 2,5-difluorophenylboronic acid] |  |  |  |  |  | 50 to 400 µg/mL (≈ 317 to 2530 µM) | 
OB(O)c1cc(Br)c(B(O)O)cc1Br [1i] |  |  |  |  |  | 50 to 400 µg/mL (≈ 155 to 1240 µM) | MIC ([5]; moderate antifungal activity): 6.25 to 50 µg/mL (≈ 19.3 to 155 µM)
OB(O)c1cc(C(F)(F)F)cc(B(O)O)c1F [2e] | 50 to 100 µg/mL (≈ 199 to 397 µM) | 0.78 to 12.5 µg/mL (≈ 3.1 to 49.7 µM) |  |  |  |  | reduction of MIC in the presence of PAβN [4]: 4–16 fold
OB(O)c1ccc(B(O)O)c(F)c1F [1c] | 100 to 400 µg/mL (≈ 496 to 1980 µM) | 12.5 to 50 µg/mL (≈ 62 to 248 µM) |  |  |  |  | 
OB(O)c1ccccc1S [7c, 2-mercaptophenylboronic acid] |  |  |  |  |  |  | MFC [5]: 25 to 200 µg/mL (≈ 162 to 1300 µM); MIC ([1]; all tested coccis): 12.5 to 25 µg/mL (≈ 81.2 to 162 µM)
OB(O)c1ccc(C(F)(F)F)cc1B(O)O [3e] |  |  |  |  |  |  | MIC ([5]; most Candida spp.): 3.12 to 6.25 µg/mL (≈ 13.3 to 26.7 µM); MFC [5]: 400 µg/mL (≈ 1710 µM); reduction of MIC in the presence of PAβN [4]: 4–16 fold
OB(O)c1cccc(B(O)O)c1 [2a] |  |  | 1.605 and 1.649 and 1.595 | 1.520 and 1.499 and 1.528 | 1.377 and 1.274 and 1.280 |  | 
OB(O)c1ccc(B(O)O)cc1 [1a] |  |  | 1.348 and 1.320 and 1.308 | 1.214 and 1.079 and 1.201 | 0.998 and 1.066 and 1.076 |  | 
OB(O)c1ccccc1B(O)O [3a, phenylene-1,2-diboronic acid] |  |  | 1.451 and 1.436 and 1.174 | 1.305 and 1.279 and 1.249 | 1.090 and 1.114 and 1.077 | 50 to 400 µg/mL (≈ 302 to 2410 µM) | 
